The subject of experiment [1] is cytokine production. Kind of experiment: in vitro cytokine production (cellular assay). Type of experiment: cell-based. The note with it: assay not described.
Experiment [2] relates to T-cell proliferation. Kind of experiment: in vitro T-cell proliferation (cellular assay). Type of experiment: cell-based. The note with it: assay not described.
The test system of experiment [3] is TNFα and IL-1β levels. Kind of experiment: LPS Mouse Assay. Type of experiment: in vivo, Balb-c mice. Here is the method: 7 week old Balb-c mice (n=8) fed and watered ad libitum were dosed at time zero with the compound of Example 1 at 3, 30 and 300 mg/kg in a 1% methylcellulose vehicle by oral gavage (10 ml/kg). 30 minutes after drug treatment mice were intraperitoneally administered with 1 mg/kg LPS (5 ml/kg in normal saline). 2 hours post-LPS challenge blood samples were collected by cardiac puncture under isoflurane anaesthesia. Blood samples were allowed to clot at room temperature for 10 minutes and then put on ice until spun at 6000 g for 3 minutes at 4° C. and then stored at −20° C. until analysis by ELISA for TNFα and IL-1β levels. TNFα and IL-1β levels were reported as pg/ml of serum (mean±SEM) significance was evaluated by a Dunnett's test followed by a Kruskal-Wallis one way analysis followed by a Dunn's test.

In experiment [4] the test system is clinical signs induced in the EAE model. Kind of experiment: Experimental Autoimmune Encephalitis (EAE). It counts as in vivo, Male Lewis rats. The conditions noted are these: 150 mg/kg orally twice a day from the day of inoculation; scored daily from day 7 post-inoculation. Here is the method:
Experimental Autoimmune Encephalitis (EAE)
Male Lewis rats (250-290 g) (n=10) were injected into both rear foot-pad with 0.1 ml of an emulsion containing equal parts of guinea-pig spinal cord, phosphate buffered saline and incomplete Freund's adjuvant with 8 mg/ml Mycobacterium tuberculosis H37Ra. The compound of Example 1 (150 mg/kg) was dosed orally in a 10% acacia gum vehicle (1 ml/kg) twice a day from the day of inoculation.
Body weights and neurological scores were observed daily from day 7 post-inoculation. The total daily score was calculated for each group and plotted over time. Non-parametric statistical analyses (Kruskal-Wallis) one-way analysis, followed by a Dunn's test, were employed.

For `O=C(O)c1cc(O)c2c(c1)C(=O)c1cccc(O)c1C2=O` [rhein, 1,8-dihydroxyanthraquinone-3-carboxylic acid], the “inhibition of cytokine production” value in experiment [1] is reported as “fail to produce a response”. In experiment [2], the “inhibition of T-cell proliferation” value is recorded as “fail to produce a response”.

Turning to `O=C(O)c1cc(OC(=O)C2CCOCC2)c2c(c1)C(=O)c1cccc(OC(=O)C3CCOCC3)c1C2=O` [Example 1, 4,5-Bis(tetrahydropyran-4-carbonyloxy)-9,10-dioxo-dihydroanthracene-2-carboxylic acid], the “efficacy in the LPS mouse model (summary statement)” value in experiment [3] (mouse, in vivo) is given as “efficacy”. Also, the “reduction of TNFα levels post-LPS insult” value in experiment [3] (serum, ELISA, 3, 30 and 300 mg/kg by oral gavage 30 minutes before 1 mg/kg LPS i.p., blood 2 hours post-LPS, all three doses, dose-dependant) was “significant efficacy on reducing TNFα levels”. Moreover, the “reduction of IL-1β levels post-LPS” value in experiment [3] (serum, ELISA, oral gavage 30 minutes before 1 mg/kg LPS i.p., blood 2 hours post-LPS, at the top two doses (30 and 300 mg/kg)) is given as “reduced IL-1β levels”. Moreover, in experiment [4], the “efficacy on clinical signs (neurological scores) in the EAE model” value is recorded as “significant efficacy”.

(Values after patent US7728035B2, “Ester derivatives of rhein and their therapeutic use” (Sosei R&D Ltd., priority 2004, dated 2010).)
